Assay results: ChEMBL document CHEMBL1145654, “Phototoxic and Insecticidal Activities of Chromenes and Benzofurans from Encelia” (J Nat Prod, 1983)
The source made the active and inactive calls. The rule behind the calls is not given here.

Experiments:
Assay type in all cases: functional, organism-based
Pseudomonas fluorescens = test: Phototoxicity in 2 hrs UV irradiated Pseudomonas fluorescens measured after 24 hrs
Oncopeltus fasciatus [1] = test: Antijuvenile hormone activity in first instar Oncopeltus fasciatus larvae at 5 mg to 100 ug/petri dish
Bacillus subtilis = test: Phototoxicity in 2 hrs UV irradiated Bacillus subtilis measured after 24 hrs
Staphylococcus = test: Phototoxicity in 2 hrs UV irradiated Staphylococcus albus measured after 24 hrs
Escherichia coli = test: Phototoxicity in 2 hrs UV irradiated Escherichia coli measured after 24 hrs
Candida albicans = test: Phototoxicity in 2 hrs UV irradiated Candida albicans measured after 24 hrs
Saccharomyces cerevisiae = test: Phototoxicity in 2 hrs UV irradiated Saccharomyces cerevisiae measured after 24 hrs
Oncopeltus fasciatus [2] = test: Insecticidal activity in first instar Oncopeltus fasciatus larvae at 1.2 mg/petri dish after 3 to 4 days
Oncopeltus fasciatus [3] = test: Insecticidal activity in first instar Oncopeltus fasciatus larvae at 5 mg/petri dish

Row | Structure (SMILES) | Activity (Pseudomonas fluorescens) | Activity (Oncopeltus fasciatus [1]) | Activity (Bacillus subtilis) | Activity (Staphylococcus) | Activity (Escherichia coli) | Activity (Candida albicans) | Activity (Saccharomyces cerevisiae) | Activity (Oncopeltus fasciatus [2]) | Activity (Oncopeltus fasciatus [3])
1 | C=C(C)c1cc2cc(C(C)=O)c(O)cc2o1 | inactive | inactive | inactive | inactive | inactive | inactive | inactive | – | –
2 | COc1cc2c(cc1[C@](C)(O)CC(C)c1cc3cc(C(C)=O)c(O)cc3o1)C=CC(C)(C)O2 (stereo not given in full) | inactive | – | inactive | inactive | inactive | inactive | inactive | – | –
3 | COc1cc2c(cc1C(C)=O)C=CC(C)(C)O2 | inactive | inactive | Active | inactive | inactive | Active | Active | Active | –
4 | COc1c2occc2cc2ccc(=O)oc12 | inactive | – | Active | Active | Active | Active | Active | – | –
5 | COc1ccc2c(c1)OC(C)(C)C=C2 | inactive | inactive | inactive | inactive | inactive | inactive | inactive | – | –
6 | CC(=O)c1cc2c(cc1O)OC(C)(C)C=C2 | inactive | inactive | Active | inactive | inactive | Active | Active | – | Active
7 | C=C(C)c1cc2cc(C(C)=O)c(OC)cc2o1 | Active | – | Active | inactive | inactive | Active | Active | – | –
8 | COc1cc2c(cc1OC)OC(C)(C)C=C2 | inactive | inactive | inactive | inactive | inactive | inactive | inactive | – | –
